Experimental data as given in US7737119B2, “Cosmetic or pharmaceutical composition comprising peptides, uses and treatment processes” (Societe d'Extraction des Principes Actifs S.A., priority 2002, dated 2010).
Where no end group is shown, it is not given here.

Legend:
keratinocytes = assay: Adhesion between cutaneous cells, MTT reading of adherent keratinocytes in 96 well micro-plates; assay type: cell-based; details: after 3 hours of contact with the keratinocytes; compared with the other peptides tested
Description: The study is performed in 96 well micro-plates on keratinocytes cultured in an incubator at 37° C. and 5% of CO2.
The wells are pre-treated during 12 hours in a different way; four conditions are thus performed: • Condition A: negative control, containing no peptide; • Condition B: incubated with various peptides, made of 3 to 25 amino acids (from the extracellular matrix), with a concentration from 5 to 50 ppm; • Condition C: incubated with the peptide of sequence Arg-Asp-Phe-Thr-Lys-Ala-Thr-Asn-Ile-Arg-Leu-Arg-Phe-Leu-Arg (SEQ ID NO: 3) to a concentration of 5 ppm.
After 3 hours of contact with the keratinocytes, the wells are completely filled with culture medium, hermetically closed, turned over and agitated on a three-dimensional agitator during 20 minutes. Then the plates are emptied and the medium remaining is aspired. 100 μl of MTT with 1 mg/ml per well is added and is left during 3 hours at 37° C. and 5% of CO2. The solution is finally withdrawn and 100 μl of DMSO is added. A reading of C is made at 560 nm against 630 nm.
The results present the various Optical Density (O.D.) obtained according to the various conditions. The O.D. is proportional to the quantity of viable cells, that is to say those which adhered to the micro-plates.

keratin = assay: Immunofluorescence study of keratin expression in ex vivo human skin samples; assay type: cell-based; details: 48 hours
Description: (§1) Human fibroblasts are plated in Labteks then cultured for one night. After rinsing with HBS buffer, a composition containing 1% of a solution at 100 ppm of the peptide SEQ ID NO: 5, or a control composition containing no peptide, is added. The cells are then incubated for 48 hours. After performing the elimination of the supernatants and rinsing the cultures, the cells are fixed with paraformaldehyde for 30 minutes at 4° C. then rinsed with PBS buffer.
(§2) 200 μL of anti-fibronectin antibody or anti-collagen I, or anti-collagen III polyclonal antibody obtained in the rabbit (TEBU) are then added. Incubation lasts 30 minutes at room temperature. The supernatants are eliminated and the cells are rinsed with PBS. 200 μL of secondary antibody, coupled to a fluorescent marker (Alexa-fluor 488) are then added. After 30 minutes of incubation at room temperature, the supernatants are eliminated and the cells are rinsed with the PBS.
(§3) The slides are then assembled and examined under epi-fluorescence microscope (Nikon Eclipse E600). The quantities of fibronectine and/or collagen of the type I and III, synthesized by the cells, are proportional to fluorescence intensity.
A study by immunofluorescence technique, identical to that of Example 3, was performed on ex vivo human skin samples, with anti-keratin monoclonal antibody (Novocastra).

laminin-5 = assay: Immunofluorescence study of laminin-5 expression in HaCat human keratinocytes; assay type: cell-based; details: 48 hours
Description: as §1, §2, §3
(§4) A study by immunofluorescence technique, identical to that of example 3, was performed on HaCat human keratinocytes, with anti-laminin-5 antibodies and/or β1 anti-integrin antibodies.

type I collagen = assay: Immunofluorescence study of type I collagen expression in human fibroblasts; assay type: cell-based; details: 1% of a solution at 100 ppm of peptide, 48 hours
Description: (§5) The immunofluorescence is a semi-quantitative technique which makes it possible to appreciate the rate of each protein present in the cellular cytoplasm.
as §1, §2, §3

fibronectin = assay: Immunofluorescence study of fibronectin expression in human fibroblasts; assay type: cell-based; details: 1% of a solution at 100 ppm of peptide, 48 hours
Description: as §5, §1, §2, §3

β1 integrin = assay: Immunofluorescence study of β1 integrin expression in HaCat human keratinocytes; assay type: cell-based; details: 48 hours
Description: as §1, §2, §3, §4

type III collagen = assay: Immunofluorescence study of type III collagen expression in human fibroblasts; assay type: cell-based; details: 1% of a solution at 100 ppm of peptide, 48 hours
Description: as §5, §1, §2, §3

[1] = system: fibroblasts as well as human keratinocytes in culture; assay: Peptide applied to cells in culture, HPLC analysis of the culture medium; assay type: cell-based; details: peptide applied to fibroblasts and human keratinocytes in culture, in a few hours
Description: A test is performed by applying the peptide to fibroblasts as well as to human keratinocytes in culture.

[2] = Stability of peptide in solution by HPLC (C18) at various temperatures; assay type: physicochemical; details: 10^−4 M
Description: Peptide SEQ ID NO: 3 Arg-Asp-Phe-Thr-Lys-Ala-Thr-Asn-Ile-Arg-Leu-Arg-Phe-Leu-Arg was analyzed with a concentration of 10^−4 M by HPLC on a C18 type column, and with a linear gradient water/TFA 0.1%-acetonitrile/TFA 0.1%.

[3] = Stability of peptide in culture medium conditioned by human fibroblasts and keratinocytes (released enzymes of degradation); assay type: in vitro ADME; details: after 24 hours in culture medium withdrawn from human fibroblasts and keratinocytes cultured 24 hours at 37° C.
Description: Human fibroblasts and keratinocytes were cultured during 24 hours at 37° C. and to 5% of CO2. For this period, the cells will release numerous enzymes of degradation in the culture medium. Thereafter, the culture medium is withdrawn to be put in the presence of peptide.

Question: For DFTKATNIRLRFLR [SEQ ID NO: 11], which cell adhesion (keratinocytes) is on record?
Answer: The cell adhesion was “very good cell adhesion”.

Question: Which “keratin expression (fluorescence intensity)” value (keratin) does the source give for IRLRFLR [SEQ ID NO: 4] here?
Answer: Its value is “increases”.

Question: Which results are given for “Ile-Arg-Leu-Arg-Phe-Leu-Arg-NH2 (IRLRFLR-NH2) [SEQ ID NO: 5]”?
Answer: laminin-5 synthesis (fluorescence intensity) (laminin-5): increase; type I collagen synthesis (fluorescence intensity) (type I collagen): increases; fibronectin synthesis (fluorescence intensity) (fibronectin): increases; β1 integrin synthesis (fluorescence intensity) (β1 integrin): increase; type III collagen synthesis (fluorescence intensity) (type III collagen): increases

Question: Which results are given for “RDFTKATNIRLRFLR [SEQ ID NO: 3, Arg-Asp-Phe-Thr-Lys-Ala-Thr-Asn-Ile-Arg-Leu-Arg-Phe-Leu-Arg]”?
Answer: peptide concentration in the culture medium [1]: decreases quickly; degradation of the peptide ([2]; after 24 hours at 25° C., 37° C. and 60° C.): no degradation; degradation of the peptide ([2]; after 8 days at 25° C.): does not present degradation; degradation of the peptide [3]: almost no degradation
